From ChEMBL document CHEMBL1155623, “New skeletal sesquiterpenoids, caprariolides A-D, from Capraria biflora and their insecticidal activity” (2000)

Test system: Cylas formicarius
Assay: Insecticidal activity in adult Cylas formicarius elegantulus measured per insect after 24 hrs
Format: functional

C[C@@H]1CC(c2ccoc2)=C[C@]2(C1)C[C@@H](C)C(=O)O2 [CAPRARIOLIDE B]
LD50: 1.102 mg

C=CCc1ccc(O)c(OC)c1 [EUGENOL]
LD50: 0.605 mg

C[C@@H]1CC(c2ccoc2)=C[C@]2(C1)C[C@H](C)C(=O)O2 [CAPRARIOLIDE A]
LD50: 0.902 mg
